Measurements taken from paper PMC8632988, “Inhibition of SYK and cSrc kinases can protect bone and cartilage in preclinical models of osteoarthritis and rheumatoid arthritis” (Scientific Reports, 2021).
Like-named read-outs stand apart in the source and are kept apart here.

Experiments:
Test in all cases: Kinase selectivity profile assay
Format in all cases: biochemical
DCAMKL2 = biological target: T1, DCAMKL2 (Homo sapiens, UniProt Q8N568); conditions: 500 nM; relative to DMSO; read-out: Residual enzymatic activity
T1 construct: purchased Reaction Biology Corporation
In short: (§1)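 Radiometric kinase assay run by a standard protocol. Unbound phosphate was removed by washing filters in phosphoric acid, and product radioactivity gave percent remaining kinase activity versus DMSO vehicle reactions. Run in duplicate.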

BRSK1 = biological target: T2, BRSK1 (Homo sapiens, UniProt Q8TDC3); conditions: 500 nM; relative to DMSO; read-out: Residual enzymatic activity
T2 construct: purchased Reaction Biology Corporation
In short: as §1

JNK3 = biological target: T3, JNK3 (Homo sapiens, UniProt P53779); conditions: 500 nM; relative to DMSO; read-out: Residual enzymatic activity
T3 construct: purchased Reaction Biology Corporation
In short: as §1

CAMKK2 = biological target: T4, CAMKK2 (Homo sapiens, UniProt Q96RR4); conditions: 500 nM; relative to DMSO; read-out: Residual enzymatic activity
T4 construct: purchased Reaction Biology Corporation
In short: as §1

ALK1/ACVRL1 = biological target: T5, ALK1/ACVRL1 (Homo sapiens, UniProt P37023); conditions: 500 nM; relative to DMSO; read-out: Residual enzymatic activity
T5 construct: purchased Reaction Biology Corporation
In short: as §1

EPHA4 = biological target: T6, EPHA4 (Homo sapiens, UniProt P54764); conditions: 500 nM, relative to DMSO; for remaining activity at 0.5 µM: read-out: Residual enzymatic activity
T6 construct: purchased Reaction Biology Corporation
T6 sequence (P54764 20-986): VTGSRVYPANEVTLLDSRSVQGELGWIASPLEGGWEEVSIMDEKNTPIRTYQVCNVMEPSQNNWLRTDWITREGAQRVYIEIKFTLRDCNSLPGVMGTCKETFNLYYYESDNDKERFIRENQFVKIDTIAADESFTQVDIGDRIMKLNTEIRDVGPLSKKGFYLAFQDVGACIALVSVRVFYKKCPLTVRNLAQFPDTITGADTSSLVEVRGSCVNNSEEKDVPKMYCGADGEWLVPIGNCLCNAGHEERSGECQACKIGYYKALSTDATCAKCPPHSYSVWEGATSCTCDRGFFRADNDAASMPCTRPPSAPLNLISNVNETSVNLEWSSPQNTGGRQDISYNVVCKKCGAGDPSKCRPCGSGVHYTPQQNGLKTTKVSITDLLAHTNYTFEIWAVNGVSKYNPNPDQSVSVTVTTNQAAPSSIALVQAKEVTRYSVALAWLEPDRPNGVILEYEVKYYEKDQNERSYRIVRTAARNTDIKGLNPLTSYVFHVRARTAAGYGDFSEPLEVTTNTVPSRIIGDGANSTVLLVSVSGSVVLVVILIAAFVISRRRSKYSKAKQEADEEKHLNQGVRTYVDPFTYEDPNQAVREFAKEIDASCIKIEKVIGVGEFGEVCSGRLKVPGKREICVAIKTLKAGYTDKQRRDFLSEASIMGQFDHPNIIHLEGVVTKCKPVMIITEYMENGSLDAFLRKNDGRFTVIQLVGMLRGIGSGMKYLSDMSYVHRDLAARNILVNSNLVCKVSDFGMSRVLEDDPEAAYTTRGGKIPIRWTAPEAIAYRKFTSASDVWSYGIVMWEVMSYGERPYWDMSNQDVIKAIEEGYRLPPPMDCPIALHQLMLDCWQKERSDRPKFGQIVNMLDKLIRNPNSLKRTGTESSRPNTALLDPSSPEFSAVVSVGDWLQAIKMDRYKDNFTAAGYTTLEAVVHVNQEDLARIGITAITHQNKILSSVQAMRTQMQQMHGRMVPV
In short: as §1

MYO3b = biological target: T7, MYO3b (Homo sapiens, UniProt Q8WXR4); conditions: 500 nM; relative to DMSO; read-out: Residual enzymatic activity
T7 construct: purchased Reaction Biology Corporation
In short: as §1

ULK2 = biological target: T8, ULK2 (Homo sapiens, UniProt Q8IYT8); conditions: 500 nM; relative to DMSO; read-out: Residual enzymatic activity
T8 construct: purchased Reaction Biology Corporation
In short: as §1

STK16 = biological target: T9, STK16 (Homo sapiens, UniProt O75716); conditions: 500 nM; relative to DMSO; read-out: Residual enzymatic activity
T9 construct: purchased Reaction Biology Corporation
T9 sequence (O75716 whole entry): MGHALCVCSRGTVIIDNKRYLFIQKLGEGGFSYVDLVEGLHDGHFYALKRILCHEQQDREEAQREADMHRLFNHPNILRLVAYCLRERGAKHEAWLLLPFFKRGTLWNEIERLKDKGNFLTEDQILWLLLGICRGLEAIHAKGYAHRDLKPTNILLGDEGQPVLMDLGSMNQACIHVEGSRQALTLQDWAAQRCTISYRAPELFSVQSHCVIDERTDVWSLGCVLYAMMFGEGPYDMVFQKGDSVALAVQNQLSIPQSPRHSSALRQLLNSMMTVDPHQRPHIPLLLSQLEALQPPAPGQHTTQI
In short: as §1

TLK1 = biological target: T10, TLK1 (Homo sapiens, UniProt Q9UKI8); conditions: 500 nM; relative to DMSO; read-out: Residual enzymatic activity
T10 construct: purchased Reaction Biology Corporation
In short: as §1

LCK2/ICK = biological target: T11, LCK2/ICK (Homo sapiens, UniProt Q9UPZ9); conditions: 500 nM; relative to DMSO; read-out: Residual enzymatic activity
T11 construct: purchased Reaction Biology Corporation
In short: as §1

PKG1b = biological target: T12, PKG1b (Homo sapiens, UniProt Q13976); conditions: 500 nM; relative to DMSO; read-out: Residual enzymatic activity
T12 construct: purchased Reaction Biology Corporation
In short: as §1

ALK4/ACVR1B = biological target: T13, ALK4/ACVR1B (Homo sapiens, UniProt P36896); conditions: 500 nM; relative to DMSO; read-out: Residual enzymatic activity
T13 construct: purchased Reaction Biology Corporation
In short: as §1

MEKK1 = biological target: T14, MEKK1 (Homo sapiens, UniProt Q13233); conditions: 500 nM; relative to DMSO; read-out: Residual enzymatic activity
T14 construct: purchased Reaction Biology Corporation
In short: as §1

MSK2/RPS6KA4 = biological target: T15, MSK2/RPS6KA4 (Homo sapiens, UniProt O75676); conditions: 500 nM; relative to DMSO; read-out: Residual enzymatic activity
T15 construct: purchased Reaction Biology Corporation
In short: as §1

TTBK1 = biological target: T16, TTBK1 (Homo sapiens, UniProt Q5TCY1); conditions: 500 nM; relative to DMSO; read-out: Residual enzymatic activity
T16 construct: purchased Reaction Biology Corporation
In short: as §1

ALK5/TGFBR1 = biological target: T17, ALK5/TGFBR1 (Homo sapiens, UniProt P36897); conditions: 500 nM; relative to DMSO; read-out: Residual enzymatic activity
T17 construct: purchased Reaction Biology Corporation
In short: as §1

Haspin = biological target: T18, Haspin (Homo sapiens, UniProt Q8TF76); conditions: 500 nM; relative to DMSO; read-out: Residual enzymatic activity
T18 construct: purchased Reaction Biology Corporation
In short: as §1

FLT4/VEGFR3 = biological target: T19, FLT4/VEGFR3 (Homo sapiens, UniProt P35916); conditions: for remaining activity at 0.5 µM: 500 nM, relative to DMSO, read-out: Residual enzymatic activity
T19 construct: purchased Reaction Biology Corporation (assay service)
T19 sequence (P35916 25-1363): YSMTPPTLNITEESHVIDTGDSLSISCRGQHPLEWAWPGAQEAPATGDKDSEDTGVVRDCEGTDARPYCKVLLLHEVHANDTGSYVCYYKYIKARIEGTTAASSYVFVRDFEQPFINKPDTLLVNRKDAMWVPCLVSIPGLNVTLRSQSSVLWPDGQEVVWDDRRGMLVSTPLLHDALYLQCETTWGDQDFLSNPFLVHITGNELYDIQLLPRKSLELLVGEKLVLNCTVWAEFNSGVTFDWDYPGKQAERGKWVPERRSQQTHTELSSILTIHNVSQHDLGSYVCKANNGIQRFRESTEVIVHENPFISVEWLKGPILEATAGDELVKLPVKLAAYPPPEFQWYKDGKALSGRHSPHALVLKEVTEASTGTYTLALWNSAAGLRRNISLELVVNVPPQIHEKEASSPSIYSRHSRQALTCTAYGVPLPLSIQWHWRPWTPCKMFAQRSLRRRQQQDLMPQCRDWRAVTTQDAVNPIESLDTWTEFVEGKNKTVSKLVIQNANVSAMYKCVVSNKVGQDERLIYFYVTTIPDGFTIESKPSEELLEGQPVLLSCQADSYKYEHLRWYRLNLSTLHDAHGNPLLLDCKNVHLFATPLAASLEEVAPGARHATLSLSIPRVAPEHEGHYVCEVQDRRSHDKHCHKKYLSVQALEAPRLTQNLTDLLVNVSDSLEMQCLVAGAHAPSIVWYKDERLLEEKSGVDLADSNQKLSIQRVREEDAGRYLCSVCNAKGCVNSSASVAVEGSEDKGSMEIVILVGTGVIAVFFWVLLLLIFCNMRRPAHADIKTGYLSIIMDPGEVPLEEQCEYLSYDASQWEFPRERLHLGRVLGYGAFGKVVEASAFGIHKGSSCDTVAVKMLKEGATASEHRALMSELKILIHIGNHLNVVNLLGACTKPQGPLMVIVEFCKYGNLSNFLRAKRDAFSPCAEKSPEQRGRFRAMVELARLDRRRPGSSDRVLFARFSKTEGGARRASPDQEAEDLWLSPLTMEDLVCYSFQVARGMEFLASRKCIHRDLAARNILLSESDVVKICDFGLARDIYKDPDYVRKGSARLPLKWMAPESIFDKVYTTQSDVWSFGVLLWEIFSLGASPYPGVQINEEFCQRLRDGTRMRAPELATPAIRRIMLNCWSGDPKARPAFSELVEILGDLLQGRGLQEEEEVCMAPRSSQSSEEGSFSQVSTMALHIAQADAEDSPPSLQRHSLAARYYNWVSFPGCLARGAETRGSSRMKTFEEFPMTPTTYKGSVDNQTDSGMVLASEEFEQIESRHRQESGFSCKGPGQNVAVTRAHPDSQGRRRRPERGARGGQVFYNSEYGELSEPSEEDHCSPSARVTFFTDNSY
In short: as §1

AXL = biological target: T20, AXL (Homo sapiens, UniProt P30530); conditions: 500 nM; relative to DMSO; read-out: Residual enzymatic activity
T20 construct: purchased Reaction Biology Corporation
T20 sequence (P30530 26-894): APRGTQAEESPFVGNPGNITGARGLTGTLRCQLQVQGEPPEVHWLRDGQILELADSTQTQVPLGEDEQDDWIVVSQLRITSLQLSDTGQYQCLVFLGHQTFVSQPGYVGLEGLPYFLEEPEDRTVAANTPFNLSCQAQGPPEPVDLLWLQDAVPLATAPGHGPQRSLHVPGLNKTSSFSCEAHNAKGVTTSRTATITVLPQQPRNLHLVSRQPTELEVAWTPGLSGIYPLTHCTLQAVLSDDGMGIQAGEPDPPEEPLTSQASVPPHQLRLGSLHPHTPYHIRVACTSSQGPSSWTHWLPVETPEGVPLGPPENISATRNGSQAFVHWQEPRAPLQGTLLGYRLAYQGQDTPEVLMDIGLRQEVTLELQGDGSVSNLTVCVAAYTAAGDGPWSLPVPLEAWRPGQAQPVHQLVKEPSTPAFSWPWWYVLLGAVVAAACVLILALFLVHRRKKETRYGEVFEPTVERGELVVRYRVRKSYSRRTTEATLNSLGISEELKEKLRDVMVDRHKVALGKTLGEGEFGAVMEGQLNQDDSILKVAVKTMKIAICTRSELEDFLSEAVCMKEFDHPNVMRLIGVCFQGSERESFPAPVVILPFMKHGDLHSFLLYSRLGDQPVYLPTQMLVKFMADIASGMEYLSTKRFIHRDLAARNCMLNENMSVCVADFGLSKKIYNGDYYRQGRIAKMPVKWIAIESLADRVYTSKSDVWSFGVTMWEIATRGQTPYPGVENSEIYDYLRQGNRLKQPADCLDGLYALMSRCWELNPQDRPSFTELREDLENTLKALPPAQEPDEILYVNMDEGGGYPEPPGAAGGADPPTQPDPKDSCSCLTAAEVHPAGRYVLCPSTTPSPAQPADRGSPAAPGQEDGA
In short: as §1

HCK = biological target: T21, HCK (Homo sapiens, UniProt P08631); conditions: for remaining activity at 0.5 µM: 500 nM, relative to DMSO, read-out: Residual enzymatic activity
T21 construct: purchased Reaction Biology Corporation (assay service)
T21 sequence (P08631 whole entry): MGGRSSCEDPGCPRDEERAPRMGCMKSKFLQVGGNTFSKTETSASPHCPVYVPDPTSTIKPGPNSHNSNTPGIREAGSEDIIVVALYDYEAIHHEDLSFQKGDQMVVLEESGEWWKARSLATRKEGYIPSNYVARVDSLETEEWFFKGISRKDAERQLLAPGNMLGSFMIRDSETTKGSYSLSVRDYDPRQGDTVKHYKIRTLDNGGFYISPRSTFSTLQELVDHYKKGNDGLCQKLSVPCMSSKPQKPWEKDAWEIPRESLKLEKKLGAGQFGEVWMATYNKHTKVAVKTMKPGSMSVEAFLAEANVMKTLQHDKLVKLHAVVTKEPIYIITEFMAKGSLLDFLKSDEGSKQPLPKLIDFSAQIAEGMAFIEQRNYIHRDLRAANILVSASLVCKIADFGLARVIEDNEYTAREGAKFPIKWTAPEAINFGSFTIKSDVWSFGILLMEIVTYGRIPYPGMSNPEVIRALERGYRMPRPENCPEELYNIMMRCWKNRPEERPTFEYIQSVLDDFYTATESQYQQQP
In short: as §1

CDK7/cyclin H = biological target: T22, CDK7/cyclin H (Homo sapiens, UniProt P50613); conditions: 500 nM; relative to DMSO; read-out: Residual enzymatic activity
T22 construct: purchased Reaction Biology Corporation
In short: as §1

FLT3 = biological target: T23, FLT3 (Homo sapiens, UniProt P36888); conditions: for remaining activity at 0.5 µM: 500 nM, relative to DMSO, read-out: Residual enzymatic activity
T23 construct: purchased Reaction Biology Corporation (assay service)
T23 sequence (P36888 27-993): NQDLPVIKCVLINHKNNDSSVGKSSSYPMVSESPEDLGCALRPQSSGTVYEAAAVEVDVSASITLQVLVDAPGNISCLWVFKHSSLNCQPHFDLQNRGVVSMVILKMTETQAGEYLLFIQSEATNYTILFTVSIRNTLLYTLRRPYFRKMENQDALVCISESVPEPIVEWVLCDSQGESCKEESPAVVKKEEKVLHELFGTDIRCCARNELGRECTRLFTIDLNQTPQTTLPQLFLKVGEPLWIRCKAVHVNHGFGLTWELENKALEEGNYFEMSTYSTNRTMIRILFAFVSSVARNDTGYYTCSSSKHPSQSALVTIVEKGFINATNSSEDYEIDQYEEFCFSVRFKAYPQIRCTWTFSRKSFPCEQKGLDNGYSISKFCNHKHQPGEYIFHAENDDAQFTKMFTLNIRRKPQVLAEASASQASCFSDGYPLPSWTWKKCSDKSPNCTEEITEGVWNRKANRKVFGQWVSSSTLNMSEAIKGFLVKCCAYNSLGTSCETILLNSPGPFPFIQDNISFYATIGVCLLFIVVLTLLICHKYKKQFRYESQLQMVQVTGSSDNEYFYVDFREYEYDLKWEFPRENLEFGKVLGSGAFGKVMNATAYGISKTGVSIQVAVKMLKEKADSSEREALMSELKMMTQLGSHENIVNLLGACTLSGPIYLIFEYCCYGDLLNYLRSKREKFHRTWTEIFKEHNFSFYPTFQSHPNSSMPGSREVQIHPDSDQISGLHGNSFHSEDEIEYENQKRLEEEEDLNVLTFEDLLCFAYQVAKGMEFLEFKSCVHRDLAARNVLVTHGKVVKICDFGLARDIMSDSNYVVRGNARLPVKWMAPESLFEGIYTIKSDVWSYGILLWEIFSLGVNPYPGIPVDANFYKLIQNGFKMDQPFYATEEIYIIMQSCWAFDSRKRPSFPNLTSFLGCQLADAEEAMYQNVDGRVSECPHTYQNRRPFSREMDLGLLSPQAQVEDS
In short: as §1

PBK/TOPK = biological target: T24, PBK/TOPK (Homo sapiens, UniProt Q96KB5); conditions: 500 nM; relative to DMSO; read-out: Residual enzymatic activity
T24 construct: purchased Reaction Biology Corporation
In short: as §1

PLK4/SAK = biological target: T25, PLK4/SAK (Homo sapiens, UniProt O00444); conditions: 500 nM; relative to DMSO; read-out: Residual enzymatic activity
T25 construct: purchased Reaction Biology Corporation
T25 sequence (O00444 whole entry): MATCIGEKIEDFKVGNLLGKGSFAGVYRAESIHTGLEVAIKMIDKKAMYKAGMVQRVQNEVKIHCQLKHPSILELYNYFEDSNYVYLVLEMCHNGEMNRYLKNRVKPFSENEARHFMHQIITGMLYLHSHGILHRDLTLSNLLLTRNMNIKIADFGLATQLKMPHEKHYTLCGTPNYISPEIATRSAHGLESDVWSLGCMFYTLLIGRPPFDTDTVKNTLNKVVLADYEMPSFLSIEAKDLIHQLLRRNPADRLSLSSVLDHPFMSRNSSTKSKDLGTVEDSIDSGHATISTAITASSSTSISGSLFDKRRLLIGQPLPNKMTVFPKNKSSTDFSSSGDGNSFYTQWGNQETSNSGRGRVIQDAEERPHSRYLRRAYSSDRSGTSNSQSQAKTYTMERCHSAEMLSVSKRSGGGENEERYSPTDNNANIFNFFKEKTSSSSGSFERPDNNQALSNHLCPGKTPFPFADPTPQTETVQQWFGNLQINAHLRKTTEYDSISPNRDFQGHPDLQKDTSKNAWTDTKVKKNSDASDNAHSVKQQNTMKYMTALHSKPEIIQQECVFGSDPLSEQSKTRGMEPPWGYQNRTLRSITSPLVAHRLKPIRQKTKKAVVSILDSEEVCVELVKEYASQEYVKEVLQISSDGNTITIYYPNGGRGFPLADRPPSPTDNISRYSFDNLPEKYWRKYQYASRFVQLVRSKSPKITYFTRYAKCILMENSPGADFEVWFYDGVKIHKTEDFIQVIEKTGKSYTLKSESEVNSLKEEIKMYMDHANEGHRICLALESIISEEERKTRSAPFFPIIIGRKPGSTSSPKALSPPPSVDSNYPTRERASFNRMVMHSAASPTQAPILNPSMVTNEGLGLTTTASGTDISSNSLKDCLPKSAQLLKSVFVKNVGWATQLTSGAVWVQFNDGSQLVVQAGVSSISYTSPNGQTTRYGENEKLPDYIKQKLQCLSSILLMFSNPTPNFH
In short: as §1

MRCKa/CDC42BPA = biological target: T26, MRCKa/CDC42BPA (Homo sapiens, UniProt Q5VT25); conditions: read-out: Residual enzymatic activity
T26 construct: purchased Reaction Biology Corporation
In short: as §1

P38a/MAPK14 = biological target: T27, P38a/MAPK14 (Homo sapiens, UniProt Q16539); conditions: 500 nM; relative to DMSO; read-out: Residual enzymatic activity
T27 construct: purchased Reaction Biology Corporation
In short: as §1

[1] = 10-dose mode, threefold serial dilution from 10 μM

Structure (SMILES): COc1cc(Nc2ncnc(Nc3cc4c(cn3)NC(=O)C(C)(C)O4)n2)cc(OC)c1OC [MT-SYK-03]
- remaining activity at 0.5 µM (DCAMKL2): 99.1%
- remaining activity at 0.5 µM (BRSK1): 92.6%
- remaining activity at 0.5 µM (JNK3): 96.4%
- remaining activity at 0.5 µM (CAMKK2): 97.2%
- remaining activity at 0.5 µM (ALK1/ACVRL1): 126%
- Residual enzymatic activity (EPHA4): 58.1%
- remaining activity at 0.5 µM (EPHA4): > 54%
- remaining activity at 0.5 µM (MYO3b): 95.4%
- remaining activity at 0.5 µM (ULK2): 111%
- remaining activity at 0.5 µM (STK16): 50.6%
- remaining activity at 0.5 µM (TLK1): 101%
- remaining activity at 0.5 µM (LCK2/ICK): 110%
- remaining activity at 0.5 µM (PKG1b): 93.9%
- remaining activity at 0.5 µM (ALK4/ACVR1B): 125%
- remaining activity at 0.5 µM (MEKK1): 105%
- remaining activity at 0.5 µM (MSK2/RPS6KA4): 97.9%
- remaining activity at 0.5 µM (TTBK1): 108%
- remaining activity at 0.5 µM (ALK5/TGFBR1): 104%
- remaining activity at 0.5 µM (Haspin): 101%
- remaining activity at 0.5 µM (FLT4/VEGFR3): 40.4%
- IC50 (FLT4/VEGFR3; [1]): 0.0554 µM
- remaining activity at 0.5 µM (AXL): 74.3%
- remaining activity at 0.5 µM (HCK): 26.3%
- IC50 (HCK; [1]): 0.0537 µM
- remaining activity at 0.5 µM (CDK7/cyclin H): 99.6%
- remaining activity at 0.5 µM (FLT3): 5.7%
- IC50 (FLT3; [1]): 0.023 µM
- remaining activity at 0.5 µM (PBK/TOPK): 102%
- remaining activity at 0.5 µM (PLK4/SAK): 77.8%
- remaining activity at 0.5 µM (MRCKa/CDC42BPA; 500 nM, relative to DMSO): 102%
- remaining activity at 0.5 µM (P38a/MAPK14): 110%

Structure (SMILES): COc1cc(Nc2ncc(F)c(Nc3ccc4c(n3)NC(=O)C(C)(C)O4)n2)cc(OC)c1OC [R406, reference compound]
- remaining activity at 0.5 µM (DCAMKL2): 91.8%
- remaining activity at 0.5 µM (BRSK1): 61.6%
- remaining activity at 0.5 µM (JNK3): 114%
- remaining activity at 0.5 µM (CAMKK2): 88.8%
- remaining activity at 0.5 µM (ALK1/ACVRL1): 100%
- remaining activity at 0.5 µM (EPHA4): 42.8%
- remaining activity at 0.5 µM (MYO3b): 94.1%
- remaining activity at 0.5 µM (ULK2): 37.9%
- remaining activity at 0.5 µM (STK16): 6.3%
- remaining activity at 0.5 µM (TLK1): 75.1%
- remaining activity at 0.5 µM (LCK2/ICK): 99.8%
- remaining activity at 0.5 µM (PKG1b): 98.6%
- remaining activity at 0.5 µM (ALK4/ACVR1B): 133%
- remaining activity at 0.5 µM (MEKK1): 100%
- remaining activity at 0.5 µM (MSK2/RPS6KA4): 97.7%
- remaining activity at 0.5 µM (TTBK1): 98.5%
- remaining activity at 0.5 µM (ALK5/TGFBR1): 108%
- remaining activity at 0.5 µM (Haspin): 91.5%
- remaining activity at 0.5 µM (FLT4/VEGFR3): 4.9%
- remaining activity at 0.5 µM (AXL): 44.5%
- remaining activity at 0.5 µM (HCK): 15.4%
- remaining activity at 0.5 µM (CDK7/cyclin H): 81.7%
- remaining activity at 0.5 µM (FLT3): 6.2%
- remaining activity at 0.5 µM (PBK/TOPK): 100%
- remaining activity at 0.5 µM (PLK4/SAK): 17.2%
- remaining activity at 0.5 µM (MRCKa/CDC42BPA): 104%
- remaining activity at 0.5 µM (P38a/MAPK14): 99.9%
